# Results taken from PMC11061835, “Elucidating the Mechanism of Metabolism of Cannabichromene by Human Cytochrome P450s” (Journal of Natural Products, 2024).
# Where “and” joins values, the source holds several entries; their conditions need not be identical. Identical values can stand only once.
# How the values were obtained:
# [1] = tested on: BV2 microglial cells, stimulated with lipopolysaccharide (LPS); experiment: IL-6 ELISA in LPS-stimulated BV2 cells; type: cell-based, mouse; settings: 0.1, 1.0, 2.5, 5.0 μM, LPS-stimulated
# Experimental: BV2 cells were a gift from Dr. Bob McCusker, University of Illinois. They were cultured and maintained at 37 °C in a humidified atmosphere of 95% air and 5% CO2 in high-glucose Dulbecco’s modified Eagle’s (DMEM) medium (Cat No. 10-013-CV, Corning Life Sciences), supplemented with 5% heat-inactivated fetal bovine serum (FBS), streptomycin (100 μg/mL), and penicillin (100 units/mL). Stocks of all the minor cannabinoids were made in ethanol and stored at −80 °C and diluted as required before cell treatment. A final concentration of ethanol was maintained at 0.1% in the cell culture experiments.
# BV-2 cells were plated at a density of 50 000 cells/well in a 24-well plate at 37 °C under controlled conditions. Cells were pretreated with the minor cannabinoids at various concentrations (0.1, 1.0, 2.5, 5.0 μM) for 4 h and then stimulated with LPS for 24 h. The culture medium was removed and saved for the determination of nitric oxide production through Cayman’s Griess assay. IL-6, TNFα, and Arginase 1 production was also determined utilizing collected medium. For the Greiss assay, in a 96-well plate, 100 μL of culture medium was used, and 50 μL of both Greiss reagent-1 and Greiss reagent-2 was added and incubated for 10 min. The absorbance was measured at 540 nm using a plate reader (SpectraMax iD5). The quantification was done using a calibration curve that was generated using the sodium nitrite standard obtained from Cayman Chemicals.
# BV-2 cells were pretreated with the minor cannabinoids as described previously for 4 h in serum media (reduced to 5% FBS). Cells were stimulated with LPS (25 ng/mL in growth media) and allowed to incubate for 24 h. The culture medium was collected, and the concentrations of IL-6 (Cayman Chemicals), TNFα (ThermoFisher Scientific), and arginase 1 (ThermoFisher Scientific) cytokine expression were determined using specific monoclonal antibodies by ELISA kits as per manufacturer’s instructions.
# [2] = target: CYP2D6 (Homo sapiens, UniProt P10635); experiment: Spectroscopic titration (Soret shift), CYP2D6; type: binding; set-up: His-tag; made in house; host or cells: E. coli DH-5α with pTGro7 plasmid; settings: CYP2D6, absence of CPR
# Experimental: CBC binding to various CYPs was determined by analyzing the Soret shift from ∼417 to ∼390 nm. CBC (stock 10 mM) was dissolved in ethanol and titrated with different CYPs at room temperature. Buffer-exchanged CYP2J2, CYP2D6, CYP3A4, and CYP2C8 (concentrations of proteins were kept between 4 and 5 μM) were dissolved in 0.1 M phosphate buffer (pH = 7.4), and initial spectra were recorded from 200 to 800 nm with a prominent peak at 417 nm. The concentration of CBC was varied from 0 to 100 μM keeping the final concentration of substrate in EtOH not more than 1% in cuvette. 0–4 μL of stock CBC was added using a Hamilton syringe in both the sample and blank cuvettes. The mixture was incubated for 5 min at 37 °C, and absorbance spectra were recorded using a Cary Bio 300 UV–vis spectrophotometer (Agilent Technologies, Santa Clara, CA). To eliminate the background absorbance, we derived the final spectra by […].
# [3] = target: T1, CYP3A4 with CPR (Homo sapiens, UniProt P08684); experiment: NADPH activity assay, CYP3A4 with CPR; type: biochemical; settings: CYP3A4, CBC 50 μM vs substrate-free
# T1 construct: His-tag; made in house; host or cells: E. coli DH-5α with pTGro7 plasmid (CYP)
# Experimental: CYP-mediated NADPH oxidation was measured using kinetics mode in a Cary 300 UV–vis spectrometer (Agilent Technologies). 0.2 μM (final concentration) of CYP was taken in 0.1 M potassium phosphate buffer (pH 7.4) and incubated with 0.6 μM (final concentration) of CPR for 5 min with a reaction volume of 400 μL. The reaction was initiated with 200 μM of NADPH, and the absorption change was monitored over 10 min at 340 nm. The rate of NADPH consumption (or NADPH to NADP^+ conversion) was calculated by taking the molar extinction coefficient as 6.22 mM^–1 cm^–1 at 340 nm. To estimate the change in NADPH oxidation in the presence of CBC, both CYP and CPR were further incubated using CBC (final concentration 50 μM) for 5 min followed by measuring the change in absorbance at 340 nm as discussed earlier.
# [4] = set-up: method as in PMID 28640062; settings: patients who consumed a CBD oil, cited from earlier work
# CYP2D6, sequence (P10635 whole entry): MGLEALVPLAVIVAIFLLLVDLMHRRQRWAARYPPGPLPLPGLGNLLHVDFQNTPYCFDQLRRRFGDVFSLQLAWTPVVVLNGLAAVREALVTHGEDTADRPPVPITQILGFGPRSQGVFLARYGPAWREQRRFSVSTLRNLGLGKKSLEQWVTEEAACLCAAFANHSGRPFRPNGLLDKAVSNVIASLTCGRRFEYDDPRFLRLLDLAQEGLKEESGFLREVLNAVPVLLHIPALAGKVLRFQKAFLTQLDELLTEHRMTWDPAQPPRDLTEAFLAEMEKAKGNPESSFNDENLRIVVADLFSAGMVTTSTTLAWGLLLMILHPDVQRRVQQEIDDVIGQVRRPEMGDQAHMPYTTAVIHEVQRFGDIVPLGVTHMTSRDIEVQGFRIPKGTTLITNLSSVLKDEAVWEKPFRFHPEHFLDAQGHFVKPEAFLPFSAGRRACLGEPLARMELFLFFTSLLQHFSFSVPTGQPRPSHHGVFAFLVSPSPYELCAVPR
# T1 sequence (P08684 whole entry): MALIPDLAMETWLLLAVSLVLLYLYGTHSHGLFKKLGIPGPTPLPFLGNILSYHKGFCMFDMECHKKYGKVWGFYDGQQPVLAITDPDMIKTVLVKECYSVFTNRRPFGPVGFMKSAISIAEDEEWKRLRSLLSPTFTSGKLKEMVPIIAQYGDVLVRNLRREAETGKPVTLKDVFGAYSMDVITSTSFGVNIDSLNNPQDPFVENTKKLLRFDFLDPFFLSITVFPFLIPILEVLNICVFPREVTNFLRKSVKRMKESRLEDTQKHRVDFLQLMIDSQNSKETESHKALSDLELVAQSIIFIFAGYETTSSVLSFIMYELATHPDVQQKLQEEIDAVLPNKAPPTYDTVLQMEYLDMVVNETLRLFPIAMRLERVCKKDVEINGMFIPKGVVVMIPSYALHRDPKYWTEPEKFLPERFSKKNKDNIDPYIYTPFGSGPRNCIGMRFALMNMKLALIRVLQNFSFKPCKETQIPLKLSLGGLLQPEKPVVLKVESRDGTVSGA
# T1 sequence (P16435 whole entry partner): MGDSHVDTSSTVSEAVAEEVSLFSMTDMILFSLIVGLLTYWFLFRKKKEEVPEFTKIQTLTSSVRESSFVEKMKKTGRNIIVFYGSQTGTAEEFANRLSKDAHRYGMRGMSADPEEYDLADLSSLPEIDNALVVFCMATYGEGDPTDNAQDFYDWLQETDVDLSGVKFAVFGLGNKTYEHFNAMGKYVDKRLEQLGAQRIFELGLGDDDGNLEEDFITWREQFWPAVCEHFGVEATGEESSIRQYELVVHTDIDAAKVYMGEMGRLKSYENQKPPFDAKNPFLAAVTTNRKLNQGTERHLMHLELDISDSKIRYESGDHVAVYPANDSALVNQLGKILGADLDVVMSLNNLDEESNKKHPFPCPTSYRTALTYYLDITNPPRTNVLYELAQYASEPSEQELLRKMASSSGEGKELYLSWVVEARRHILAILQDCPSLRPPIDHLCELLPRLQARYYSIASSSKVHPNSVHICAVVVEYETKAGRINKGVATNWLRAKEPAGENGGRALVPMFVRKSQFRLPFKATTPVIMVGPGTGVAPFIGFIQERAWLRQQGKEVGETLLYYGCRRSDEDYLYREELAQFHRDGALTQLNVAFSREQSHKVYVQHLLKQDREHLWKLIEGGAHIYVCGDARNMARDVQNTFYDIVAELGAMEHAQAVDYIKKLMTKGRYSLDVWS
smiles,measurement,setting,value
"CCCCCc1cc(O)c2c(c1)OC(C)(CCC=C(C)C)C=C2 (stereo not drawn) [CBC, Cannabichromene]",effect on IL-6 levels,[1],Concentration dependent reduction
same,ΔAmax (spin state change due to heme perturbation),[2],0.09 ± 0.01 and ~0.09
same,Kd,[2]; read-out: Kd(app),11.4 µM and ~11 µM
same,percentage increase of NADPH consumption in the presence of CBC,[3],~15%
same,detectable level of CBC in plasma,[4]; plasma,~60 ng/mL
same,detectable level of CBC in urine,[4]; urine,~94 ng/mL
